Read-outs that look alike come from different tables or passages of the source.
Experiments:
[1] = Simultaneous distribution of 99mTc-EHDP and 85Sr in rabbits at 1-24 hours after intravenous injection; type: in vivo, adult New Zealand albino rabbits; conditions: for Blood, % Dose in Whole Organ: blood as 7 % of body weight; for Bone(Avg), % dose in whole organ: bone as 10 % of body weight; for Marrow, % Dose in Whole Organ: marrow as 2.2 % of body weight; for Muscle, % Dose in Whole Organ: muscle as 43 % of body weight
Experimental: Adult New Zealand albino rabbits having an average weight of 3.8 kg were utilized. Strontium-85 was employed as a standard for comparison. […] Each dosage is contained in a volume of 1 ml.
Multiple samples were counted from the tibia, femur, spine and pelvic bones; the total activity in the skeleton was estimated by assuming the whole skeleton consisted of equal proportions by weight of tibia, spine, femur and pelvis and that the skeletal mass was 10% of the body weight. […] The whole liver and both kidneys were weighed and multiple samples from each were counted to measure the total activity in each organ.

[2] = system: callous of three week-old fractures of tibia; test: Localization in callous of three week-old tibial fractures (rabbits), compared with strontium-85; type: in vivo, albino rabbits
Experimental: Adult New Zealand albino rabbits having an average weight of 3.8 kg were utilized. Strontium-85 was employed as a standard for comparison. In a typical experiment 20-250 μCi (i.e., containing approximately 1 mg/kg as the free acid of body weight) of 99mTc EHDP were injected intravenously into the rabbits through the marginal ear vein and compared with 10-20 μ Ci 85 Sr chloride administered simutaneously. Each dosage is contained in a volume of 1 ml.
The animals were sacrificed serially from 1 to 24 hours after injection and the activities in major organs were determined by counting multiple samples from each organ in a scintillation well counter (the technetium-99m counts were corrected for the Compton contributions from the strontium-85 activity in the technetium-99m energy window). Multiple samples were counted from the tibia, femur, spine and pelvic bones; the total activity in the skeleton was estimated by assuming the whole skeleton consisted of equal proportions by weight of tibia, spine, femur and pelvis and that the skeletal mass was 10% of the body weight. The red marrow was sampled from the femur and the total marrow was assumed to be 2.2% of the total body weight. Similarly, blood volume was assumed to be 7% and the skeletal muscle 43% of the body weight. The whole liver and both kidneys were weighed and multiple samples from each were counted to measure the total activity in each organ.
In another series of experiments carried out as described above, localization of technetium from its tin-phosphonate complex was determined in the callous of three week-old fractures of tibia in albino rabbits, again in comparison with strontium-85. Comparative radioassay of technetium-99m administered as the pertechnetate was measured in the callous of tibial fractures in rabbits at one and four hours after administration.

[3] = 2 Hrs
[4] = radioactive decay; cited from earlier work

[85Sr+2].[Cl-].[Cl-] [85Sr, reference compound]
Bone(Avg), % dose / 1 % body weight ([1]; 1 Hr): 5.60 % dose / 1 % body weight
Femur, % dose / 1 % body weight ([1]; 1 Hr): 4.90 % dose / 1 % body weight
Kidneys, % Dose in Whole Organ ([1]; 1 Hr): 0.80 % dose
Pelvis, % dose / 1 % body weight ([1]; 1 Hr): 7.07 % dose / 1 % body weight
Spine, % dose / 1 % body weight ([1]; 1 Hr): 7.03 % dose / 1 % body weight
Tibia, % dose / 1 % body weight ([1]; 1 Hr): 3.62 % dose / 1 % body weight
Urine, % Dose ([1]; 1 Hr): 6.96 % dose
Blood, % Dose in Whole Organ ([1]; 1 Hr): 11.9 % dose
Bone(Avg), % dose in whole organ ([1]; 1 Hr): 56.0 % dose
Marrow, % Dose in Whole Organ ([1]; 1 Hr): 0.91 % dose
Muscle, % Dose in Whole Organ ([1]; 1 Hr): 13.4 % dose
Bone(Avg), % dose / 1 % body weight ([1]; 2 Hrs): 6.44 % dose / 1 % body weight
Femur, % dose / 1 % body weight ([1]; 2 Hrs): 5.74 % dose / 1 % body weight
Kidneys, % Dose in Whole Organ ([1]; 2 Hrs): 0.64 % dose
Pelvis, % dose / 1 % body weight ([1]; 2 Hrs): 7.70 % dose / 1 % body weight
Spine, % dose / 1 % body weight ([1]; 2 Hrs): 7.59 % dose / 1 % body weight
Tibia, % dose / 1 % body weight ([1]; 2 Hrs): 4.73 % dose / 1 % body weight
Urine, % Dose ([1]; 2 Hrs): 18.0 % dose
Blood, % Dose in Whole Organ ([1]; 2 Hrs): 7.08 % dose
Bone(Avg), % dose in whole organ ([1]; 2 Hrs): 49.4 % dose
Marrow, % Dose in Whole Organ ([1]; 2 Hrs): 0.76 % dose
Muscle, % Dose in Whole Organ ([1]; 2 Hrs): 8.8 % dose
Bone(Avg), % dose / 1 % body weight ([1]; 4 Hrs): 6.81 % dose / 1 % body weight
Femur, % dose / 1 % body weight ([1]; 4 Hrs): 6.17 % dose / 1 % body weight
Kidneys, % Dose in Whole Organ ([1]; 4 Hrs): 0.34 % dose
Pelvis, % dose / 1 % body weight ([1]; 4 Hrs): 8.02 % dose / 1 % body weight
Spine, % dose / 1 % body weight ([1]; 4 Hrs): 7.82 % dose / 1 % body weight
Tibia, % dose / 1 % body weight ([1]; 4 Hrs): 5.13 % dose / 1 % body weight
Urine, % Dose ([1]; 4 Hrs): 22.7 % dose
Blood, % Dose in Whole Organ ([1]; 4 Hrs): 3.85 % dose
Bone(Avg), % dose in whole organ ([1]; 4 Hrs): 68.1 % dose
Marrow, % Dose in Whole Organ ([1]; 4 Hrs): 0.50 % dose
Muscle, % Dose in Whole Organ ([1]; 4 Hrs): 6.46 % dose
Bone(Avg), % dose / 1 % body weight ([1]; 24 Hrs): 5.21 % dose / 1 % body weight
Femur, % dose / 1 % body weight ([1]; 24 Hrs): 4.83 % dose / 1 % body weight
Kidneys, % Dose in Whole Organ ([1]; 24 Hrs): 0.03 % dose
Marrow, % dose / 1 % body weight ([1]; 24 Hrs): 0.05 % dose / 1 % body weight
Pelvis, % dose / 1 % body weight ([1]; 24 Hrs): 5.26 % dose / 1 % body weight
Spine, % dose / 1 % body weight ([1]; 24 Hrs): 6.47 % dose / 1 % body weight
Tibia, % dose / 1 % body weight ([1]; 24 Hrs): 4.27 % dose / 1 % body weight
Blood, % Dose in Whole Organ ([1]; 24 Hrs): 0.29 % dose
Bone(Avg), % dose in whole organ ([1]; 24 Hrs): 51.9 % dose
Marrow, % Dose in Whole Organ ([1]; 24 Hrs): 0.10 % dose
Muscle, % Dose in Whole Organ ([1]; 24 Hrs): 1.00 % dose
Callus, % dose / 1 % body weight ([2]; 1 Hr): 31.2 % dose / 1 % body weight
Callus, % dose / 1 % body weight ([2]; 4 Hrs): 37.7 % dose / 1 % body weight
Blood, % Dose in Whole Organ ([3]; AEDP 0.01 mg/kg): 2.99 % Dose
Kidneys, % Dose in Whole Organ ([3]; AEDP 0.01 mg/kg): 0.329 % Dose
Liver, % Dose in Whole Organ ([3]; AEDP 0.01 mg/kg): 0.568 % Dose
Marrow, % Dose in Whole Organ ([3]; AEDP 0.01 mg/kg): 0.465 % Dose
Urine, % Dose ([3]; AEDP 0.01 mg/kg): 20.97 % Dose
Blood, % Dose in Whole Organ ([3]; AEDP 0.05 mg/kg): 2.50 % Dose
Kidneys, % Dose in Whole Organ ([3]; AEDP 0.05 mg/kg): 0.353 % Dose
Liver, % Dose in Whole Organ ([3]; AEDP 0.05 mg/kg): 0.613 % Dose
Marrow, % Dose in Whole Organ ([3]; AEDP 0.05 mg/kg): 0.486 % Dose
Urine, % Dose ([3]; AEDP 0.05 mg/kg): 11.95 % Dose
Blood, % Dose in Whole Organ ([3]; AEDP 0.1 mg/kg): 2.48 % Dose
Kidneys, % Dose in Whole Organ ([3]; AEDP 0.1 mg/kg): 0.324 % Dose
Liver, % Dose in Whole Organ ([3]; AEDP 0.1 mg/kg): 0.654 % Dose
Marrow, % Dose in Whole Organ ([3]; AEDP 0.1 mg/kg): 0.244 % Dose
Urine, % Dose ([3]; AEDP 0.1 mg/kg): 12.1 % Dose
Blood, % Dose in Whole Organ ([3]; AEDP 0.5 mg/kg): 4.36 % Dose
Kidneys, % Dose in Whole Organ ([3]; AEDP 0.5 mg/kg): 0.384 % Dose
Liver, % Dose in Whole Organ ([3]; AEDP 0.5 mg/kg): 0.720 % Dose
Urine, % Dose ([3]; AEDP 0.5 mg/kg): 10.47 % Dose
Urine, % Dose ([3]; EHDP 0.01 mg/kg): 23.66 % Dose
Urine, % Dose ([3]; EHDP 0.05 mg/kg): 13.4 % Dose
Urine, % Dose ([3]; EHDP 0.1 mg/kg): 11.31 % Dose
Urine, % Dose ([3]; EHDP 0.5 mg/kg): 19.6 % Dose
Blood, % Dose in Whole Organ ([3]; MDP 0.01 mg/kg): 3.27 % Dose
Kidneys, % Dose in Whole Organ ([3]; MDP 0.01 mg/kg): 0.34 % Dose
Liver, % Dose in Whole Organ ([3]; MDP 0.01 mg/kg): 0.65 % Dose
Marrow, % Dose in Whole Organ ([3]; MDP 0.01 mg/kg): 0.53 % Dose
Muscle, % Dose in Whole Organ ([3]; MDP 0.01 mg/kg): 5.69 % Dose
One Femur, % Dose in Whole Organ ([3]; MDP 0.01 mg/kg): 3.46 % Dose
Urine, % Dose ([3]; MDP 0.01 mg/kg): 10.3 % Dose
Blood, % Dose in Whole Organ ([3]; MDP 0.05 mg/kg): 3.66 % Dose
Kidneys, % Dose in Whole Organ ([3]; MDP 0.05 mg/kg): 0.46 % Dose
Liver, % Dose in Whole Organ ([3]; MDP 0.05 mg/kg): 0.71 % Dose
Marrow, % Dose in Whole Organ ([3]; MDP 0.05 mg/kg): 0.53 % Dose
Muscle, % Dose in Whole Organ ([3]; MDP 0.05 mg/kg): 5.89 % Dose
One Femur, % Dose in Whole Organ ([3]; MDP 0.05 mg/kg): 2.53 % Dose
Urine, % Dose ([3]; MDP 0.05 mg/kg): 23.16 % Dose
Blood, % Dose in Whole Organ ([3]; MDP 0.1 mg/kg): 3.95 % Dose
Kidneys, % Dose in Whole Organ ([3]; MDP 0.1 mg/kg): 0.66 % Dose
Liver, % Dose in Whole Organ ([3]; MDP 0.1 mg/kg): 1.05 % Dose
Marrow, % Dose in Whole Organ ([3]; MDP 0.1 mg/kg): 0.57 % Dose
Muscle, % Dose in Whole Organ ([3]; MDP 0.1 mg/kg): 9.32 % Dose
One Femur, % Dose in Whole Organ ([3]; MDP 0.1 mg/kg): 2.80 % Dose
Urine, % Dose ([3]; MDP 0.1 mg/kg): 15.4 % Dose
Blood, % Dose in Whole Organ ([3]; MDP 0.5 mg/kg): 3.11 % Dose
Kidneys, % Dose in Whole Organ ([3]; MDP 0.5 mg/kg): 0.45 % Dose
Liver, % Dose in Whole Organ ([3]; MDP 0.5 mg/kg): 0.69 % Dose
Marrow, % Dose in Whole Organ ([3]; MDP 0.5 mg/kg): 0.67 % Dose
Muscle, % Dose in Whole Organ ([3]; MDP 0.5 mg/kg): 5.65 % Dose
One Femur, % Dose in Whole Organ ([3]; MDP 0.5 mg/kg): 2.96 % Dose
Urine, % Dose ([3]; MDP 0.5 mg/kg): 15.16 % Dose
half-life of radionuclide [4]: 65 days

From patent publication US3989730A, “Bone-seeking technetium-99m complex” (priority 1973, dated 1976)
